Consider 3 molecules from patent US10238645B2 (priority 2009, dated 2019).

Where two headings read alike, the source gives them in different places.

The nature of data set [1]: Open label pharmacokinetic study GW01-0804: serum pharmacokinetics. The following applies: for Geometric LS Mean, Reference (trough serum concentration) / Geometric LS Mean, Test (trough serum concentration): Primary steady-state analysis.
Text: Subjects stayed at the study center overnight during the treatment initiation visit (Day 1, first evening application) and the end-of-treatment visit (Day 21, last evening application). […] In addition, serum PK samples were collected in the evening prior to application on Days 7 and 14 to determine trough concentrations for steady-state analysis.
In addition, single blood draws for PK analysis of trough concentrations to determine steady state were obtained on Day 7 and Day 14 (in the evening prior to application). Blood samples could be obtained within ±5 minutes of the target sampling time.
Pharmacokinetic variables will be calculated from the serum concentration data using standard, non-compartmental methods.
The test system of data set [2] is rabbit left ventricular wedge preparation. The experiment in a line: Arterially perfused rabbit left ventricular wedge preparation (QT, QRS, Tp-e, arrhythmogenesis). On the procedure: New Zealand White rabbits, either sex weighing 2.3-2.8 kg were anticoagulated with heparin and anesthetized with ketamine/xylazine (40-50 mg/0.5-1.0 mg, per kg, i.v.). The chest was opened via a left thoracotomy, and the heart was excised and placed in a cardioplegic solution consisting of cold (4° C.) normal Tyrode's solution. Transmural wedges with dimensions of approximately 1.5 cm wide and 2-3 cm long were dissected from the left ventricle as described before (Liu et al, Heart Rhythm 2006; 3:948-956). The tissue was cannulated via a small branch of the left anterior descending artery and perfused with cardioplegic solution. […] The ventricular wedge was allowed to equilibrate in the tissue bath until electrically stable for one hour. The preparations were stimulated at basic cycle lengths (BCL) of 1000 and 2000 ms using bipolar silver electrodes insulated except at the tips and applied to the endocardial surface.
The QT interval was defined as the time from the onset of the QRS to the point at which the final downslope of the T wave crosses the isoelectric line. Transmembrane action potential from the endocardium (Endo) was recorded for identification of EADs only when QT prolongation >30% via a customer-made amplifier. Transmural dispersion of repolarization (TDR) was defined as the interval between the end and the peak of T wave (Tp-e).
The ratio of Tp-e to QT was calculated. • (6) Arrhythmic phenomena, including spontaneous R-on-T ectopic beats and TdP, were recorded if they occurred. 3.5 To Estimate Relative TdP Risk
The relative TdP risk of each compound was estimated according in which the Tp-e/QT ratio and […] phenomena were emphasized.
Results were presented as mean±SEM. Statistical analysis was performed using the Student's t-test. A p<0.05 is considered as statistically significant when compared the values at control perfusion.

Data set [3] is described as follows: Acute dermal toxicity study under occlusion. The class given is in vivo, rabbits.
A short description of data set [4]: Systemic embryofetal development study, oral. The class given is in vivo. The following applies: rats. As to the method: (§1) Note: The animal multiples of human exposure calculations were based on daily dose comparisons in this label.
Systemic embryofetal development studies were conducted in rats and rabbits.

Data set [5] can be described thus: Systemic embryofetal development study, intravenous. The format is in vivo. The following applies: rabbits.
Text: as §1

For data set [6] the following is noted: rats, oral. On the procedure:
A combined fertility and peri- and post-natal development study was conducted in rats.

Data set [7] is described as follows: Oral (gavage) carcinogenicity study, 24 months. The format is in vivo. The following applies: Wistar rats, up to 6 mg/kg 2×/week females (50×MRHD), 4 mg/kg 2×/week males (40×MRHD), 3 mg/kg 7×/week (25×MRHD).
Data set [8] is described as follows: 52-week dermal photo-carcinogenicity study. The class given is in vivo. Particulars: hairless mice, imiquimod added to the vehicle cream. From the text: The enhancement of ultraviolet carcinogenicity is not necessarily dependent on phototoxic mechanisms. Therefore, patients should minimize or avoid natural or artificial sunlight exposure to the affected areas.
In a 52-week dermal photo-carcinogenicity study, the median time to onset of skin tumor formation was decreased in hairless mice following chronic topical dosing (3×/week; 40 weeks of treatment followed by 12 weeks of observation) with concurrent exposure to UV radiation (5 days per week) with vehicle alone.

Data set [9] is described as follows: Genotoxicity tests (five in vitro, three in vivo). The following applies: five in vitro and three in vivo genotoxicity tests.
Data set [10] is described as follows: Multiple oral imiquimod doses (overdosage). The format is in vivo, human. The following applies: multiple oral doses of >200 mg.
Data set [11] in a line: Single dose (oral, intraperitoneal, subcutaneous, intravenous) and repeat dose toxicity studies. Particulars: for LD50: in vivo.

The molecule `CC(C)Cn1cnc2c(N)nc3ccccc3c21` [Imiquimod (R-837)] gave an AUC(0-inf) in [1] (both, human, in vivo) of 5.35 ng·h/mL. For the same molecule, the AUC(0-t) in data set [1] (both, human, in vivo, AUC0-24, Mean, serum, Day 1) is 3.75 ng·h/mL; in [1] (both, human, in vivo, AUC0-24, Mean, serum, Day 21), 6.79 ng·h/mL; in data set [1] (both, human, in vivo, AUC0-t, Mean, serum, Day 1), 3.12 ng·h/mL. The half-life in [1] (both, human, in vivo, T1/2, Mean, serum, Day 1) was 12.4 h; in data set [1] (both, human, in vivo, T1/2, Mean, serum, Day 21) it was 24.1 h; in data set [1] (both, human, in vivo, T1/2 EFF, Mean, serum, Day 21) it was 31.3 h. Moreover, the “λz, Mean” value in data set [1] (serum, Day 1) was determined as 0.0756 h⁻¹; in data set [1] (serum, Day 21), 0.0370 h⁻¹. Further, the “λz EFF, Mean” value in data set [1] (serum, Day 21) came out at 0.0380 h⁻¹.
Turning to `COc1cc(N)c(Cl)cc1C(=O)NC1CCN(CCCOc2ccc(F)cc2)CC1OC` (stereo not shown) [cisapride], the “Effect on Tp-e interval” value in data set [2] was “marked concentration-dependent Tp-e prolongation”. Besides, the “Equivocal EAD (preparations)” value in data set [2] (both, New Zealand White, rabbit, 0.5 uM) was 1 of 4.
With `CC(C)Cn1cnc2c(N)nc3ccccc3c21` [imiquimod, 1-(2-methylpropyl)-1H-imidazo[4,5-c]quinolin-4-amine], the LD50 in data set [3] (Rabbit, Dermal) is more than 5000 mg/kg; in data set [11] (monkey, iv, LD50, Monkey, intravenous bolus) it was more than 6 mg/kg; in data set [11] (monkey, iv, LD50, Monkey, intravenous infusion) it was approximately 8 mg/kg; in data set [11] (monkey, po, LD50, Monkey), more than 200 mg/kg; in data set [11] (mouse, ip, LD50, Mouse, Intraperitoneal) it was 879 mg/kg; in data set [11] (mouse, po, LD50, Mouse) it was 403 mg/kg. The LD50 is 763 mg/kg in [11] (rat, ip, LD50, Rat, Intraperitoneal); 1660 mg/kg in data set [11] (rat, po, LD50, Rat); approximately 20 mg/kg in data set [11] (rat, sc, LD50, Rat, Subcutaneous). Further, the Acute dermal toxicity result in data set [3] (rabbits, under occlusion, 5000 mg/kg) was “did not reveal any toxic effects”. This molecule displayed a QT increase in [2] (150 nM, BCL of 2000 ms, comparable to DMSO vehicle) of 4%. For the same molecule, the Proarrhythmic events result in data set [2] (any preparation at any concentration) is on record as “did not cause any proarrhythmic events”. For the same molecule, the “Effect on QT interval” value in data set [2] (concentration range tested) is recorded as “does not have a significant effect”. In addition, in [2] (concentration range tested), the “Effect on Tp-e interval” value is “no significant effect”. In addition, in data set [2] (imiquimod 0.5-150 nM, cisapride at 0.5 uM), the “Effect on QRS duration” value is listed as “no significant effect”. For the same molecule, the “Embryofetal toxicity or teratogenicity” value in data set [4] (5 mg/kg/day (73×MRHD based on AUC)), in data set [5] (1 mg/kg/day (234×MRHD based on AUC)) and in [5] (2 mg/kg/day (2.1×MRHD based on BSA)) was “No treatment related effects” throughout. Also, the Fetal effects entry in data set [4] (20 mg/kg/day (375×MRHD based on AUC), in the presence of maternal toxicity) was “increased resorptions, decreased fetal body weights, delays in skeletal ossification, bent limb bones”. The Teratogenicity result in data set [6] (3 mg/kg/day (24×MRHD based on AUC)) was “No treatment related effects”. In addition, the “Finding in F1 fetuses” value in data set [6] (6 mg/kg/day (50×MRHD), absence of maternal toxicity) is on record as “bent limb bones”. The “Tumors in oral carcinogenicity study” value in data set [7] is recorded as “No treatment related tumors”. Moreover, the “Tumor development with UV radiation” value in data set [8] is listed as “No additional effect on tumor development beyond the vehicle effect”. The “Mutagenic or clastogenic potential” value in data set [9] is “no evidence of mutagenic or clastogenic potential”. The “Most clinically serious adverse event” value in data set [10] was “hypotension”. The “Geometric LS Mean, Reference (trough serum concentration)” value in data set [1] (Day 14 vs. Day 7, N 13) is reported as 0.1543; in [1] (Day 21 vs. Day 14, N 11), 0.1874; in data set [1] (Day 22 vs. Day 21, N 12) it was 0.1643. The “Geometric LS Mean, Test (trough serum concentration)” value worked out at 0.1749 in [1] (Day 14 vs. Day 7, N 13); 0.1571 in [1] (Day 21 vs. Day 14, N 11); 0.1839 in data set [1] (Day 22 vs. Day 21, N 12). The molecule also had a concentration at 7 day (trough, evening prior to application) in data set [1] (both, human, in vivo, Geometric LS Mean, Reference (trough serum concentration), Secondary steady-state analysis (BLQ replaced with LLOQ/2), Day 14 vs. Day 7, N 17) of 0.127 ng/mL. Also, the concentration at 14 day (trough, evening prior to application) in data set [1] (both, human, in vivo, Geometric LS Mean, Reference (trough serum concentration), Secondary steady-state analysis (BLQ replaced with LLOQ/2), Day 21 vs. Day 14, N 15) was determined as 0.115 ng/mL; in data set [1] (both, human, in vivo, Geometric LS Mean, Test (trough serum concentration), Secondary steady-state analysis (BLQ replaced with LLOQ/2), Day 14 vs. Day 7, N 17) it was 0.126 ng/mL. Moreover, the concentration at 22 day (trough, 24 h after the Day 21 application) in data set [1] (both, human, in vivo, Geometric LS Mean, Test (trough serum concentration), Secondary steady-state analysis (BLQ replaced with LLOQ/2), Day 22 vs. Day 21, N 15) stood at 0.156 ng/mL. Moreover, the “Signs of CNS toxicity” value in data set [11] (lower repeat doses (100 mg/kg or lower)) is on record as “did not occur”. Further, in data set [11] (oral, intraperitoneal, subcutaneous or intravenous, lethal doses), the Single dose toxicity entry was “central nervous system (CNS) stimulation and convulsions”.
